Results taken from US11285156B2, “Substituted piperazines as KRAS G12C inhibitors” (Amgen Inc., priority 2018, dated 2022).

Columns and labels:
[1] = tested on: Phosphorylation of ERK1/2 in MIA PaCa-2 cells; test: Phospho-ERK1/2 MSD assay in MIA PaCa-2 cells; format: cell-based; conditions: Homo sapiens, MIA PaCa-2, 2 h, read-out: p-ERK IC50 (2 h, MiaPaCa-2; μM), 2 h compound treatment, MIA PaCa-2 cells, EGF stimulated
Procedure, shortened: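 Phospho-ERK1/2 measured by MSD electrochemiluminescence kit in RIPA lysates of MIA PaCa-2 cells. Cells were treated with compound titrations for 2 or 4 h at 37 °C, 5% CO2, followed by a 10 min pulse of 10 ng/mL EGF.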

[2] = biological target: GDP-bound KRAS protein (aa 1-169), containing both G12C and C118A amino acid substitutions (Homo sapiens (Human), UniProt P01116, C118A/G12C); test: Coupled nucleotide exchange assay (SOS-mediated nucleotide exchange, AlphaScreen); format: biochemical; conditions: read-out: Coupled exchange IC50 (5 min; μM); 5 min compound pre-incubation
[3] = tested on: Phosphorylation of ERK1/2 in A549 cells; test: Phospho-ERK1/2 MSD assay in A549 cells; format: cell-based; conditions: Homo sapiens, A549, 2 h, read-out: p-ERK IC50 (2 h, A549; μM), 2 h compound treatment, A549 cells, EGF stimulated
Procedure, shortened: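 Readout: MSD phospho-ERK1/2 signal after compound (2 or 4 h) and 10 min EGF stimulation at 10 ng/mL.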

Sequence of GDP-bound KRAS protein (aa 1-169), containing both G12C and C118A amino acid substitutions (P01116 other isoform, or with tags, fused parts or gaps G12C/C118A): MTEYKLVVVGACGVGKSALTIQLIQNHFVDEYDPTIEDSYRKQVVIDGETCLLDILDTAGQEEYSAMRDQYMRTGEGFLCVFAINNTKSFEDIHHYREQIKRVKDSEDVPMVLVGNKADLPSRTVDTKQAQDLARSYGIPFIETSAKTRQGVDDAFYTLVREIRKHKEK

Row | SMILES | IC50 [1] | IC50 [2] | IC50 [3]
1 | C=CC(=O)N1C[C@H](C)N(c2nc(=O)n(-c3c(C)ccnc3C(C)C)c3nc(-c4ccccc4C4CC4)c(Cl)cc23)C[C@H]1C (atropisomer, axis not shown; (M)) [Example 92-4, (M)-6-Chloro-7-(2-cyclopropylphenyl)-4-[(2S,5R)-2,5-dimethyl-4-prop-2-enoyl-piperazin-1-yl]-1-(2-isopropyl-4-methyl-3-pyridyl)pyrido [2,3-d]pyrimidin-2-one] | 0.042 µM | 0.044 µM | > 7.5 µM
2 | C=CC(=O)N1C[C@H](C)N(c2nc(=O)n(-c3c(C)ccnc3C(C)C)c3nc(C4=CCCCCC4)c(Cl)cc23)C[C@H]1C (atropisomer, axis not shown; (M)) [Example 92-10, (M)-6-Chloro-7-(cyclohepten-1-yl)-4-[(2S,5R)-2,5-dimethyl-4-prop-2-enoyl-piperazin-1-yl]-1-(2-isopropyl-4-methyl-3-pyridyl)pyrido [2,3-d]pyrimidin-2-one] | 0.367 µM | 0.059 µM | > 7.5 µM
3 | C=CC(=O)N1C[C@H](C)N(c2nc(=O)n(-c3c(C)ccnc3C(C)C)c3nc(-c4cccc5cc[nH]c45)c(Cl)cc23)C[C@H]1C (atropisomer, axis not shown; (M)) [Example 92-11, (M)-6-Chloro-4-[(2S,5R)-2,5-dimethyl-4-prop-2-enoyl-piperazin-1-yl]-7-(lH-indol-7-yl)-1-(2-isopropyl-4-methyl-3-pyridyl)pyrido [2,3-d]pyrimidin-2-one] | 0.262 µM | 0.086 µM | > 7.5 µM
4 | C=CC(=O)N1C[C@H](C)N(c2nc(=O)n(-c3c(C)ccnc3C(C)C)c3nc(-c4ccccc4N)c(Cl)cc23)C[C@H]1C (atropisomer, axis not shown; (M)) [Example 92-12, (M)-7-(2-Aminophenyl)-6-chloro-4-[(2S,5R)-2,5-dimethyl-4-prop-2-enoyl-piperazin-1-yl]-1-(2-isopropyl-4-methyl-3-pyridyl)pyrido[2,3-d]pyrimidin-2-one] | 0.022 µM | 0.019 µM | > 7.5 µM
5 | C=CC(=O)N1C[C@H](C)N(c2nc(=O)n(-c3c(C)ccnc3C(C)C)c3nc(-c4cccnc4N)c(Cl)cc23)C[C@H]1C (atropisomer, axis not shown; (M)) [Example 92-13, (M)-7-(2-Amino-3-pyridyl)-6-chloro-4-[(2S,5R)-2,5-dimethyl-4-prop-2-enoyl-piperazin-1-yl]-1-(2-isopropyl-4-methyl-3-pyridyl)pyrido [2,3-d]pyrimidin-2-one] | 0.251 µM | 0.201 µM | > 7.5 µM
6 | C=CC(=O)N1C[C@H](C)N(c2nc(=O)n(-c3c(C)ccnc3C(C)C)c3nc(-c4ccccc4OC(F)F)c(Cl)cc23)C[C@H]1C (atropisomer, axis not shown; (M)) [Example 92-14, (M)-6-Chloro-7-[2-(difluoromethoxy)phenyl]-4-[(2S,5R)-2,5-dimethyl-4-prop-2-enoyl-piperazin-1-yl]-1-(2-isopropyl-4-methyl-3-pyridyl)pyrido [2,3-d]pyrimidin-2-one] | 0.074 µM | 0.121 µM | > 7.5 µM
7 | C=CC(=O)N1C[C@H](C)N(c2nc(=O)n(-c3c(C)ccnc3C(C)C)c3nc(-c4c(C)ccc5cn[nH]c45)c(Cl)cc23)C[C@H]1C (atropisomer, axis not shown; (M)) [Example 92-15, (M)-6-Chloro-4-[(2S,5R)-2,5-dimethyl-4-prop-2-enoyl-piperazin-1-yl]-1-(2-isopropyl-4-methyl-3-pyridyl)-7-(6-methyl-1H-indazol-7-yl)pyrido[2,3-d]pyrimidin-2-one] | 0.125 µM | 0.094 µM | > 7.5 µM
8 | C=CC(=O)N1C[C@H](C)N(c2nc(=O)n(-c3c(C)ccnc3C(C)C)c3nc(-c4ccccc4C(F)F)c(Cl)cc23)C[C@H]1C (atropisomer, axis not shown; (M)) [Example 92-16, (M)-6-Chloro-7-[2-(difluoromethyl)phenyl]-4-[(2S,5R)-2,5-dimethyl-4-prop-2-enoyl-piperazin-1-yl]-1-(2-isopropyl-4-methyl-3-pyridyl)pyrido [2,3-d]pyrimidin-2-one] | 0.015 µM | 0.043 µM | > 7.5 µM
9 | C=CC(=O)N1C[C@H](C)N(c2nc(=O)n(-c3c(C)ccnc3C(C)C)c3nc(-c4cccc(F)c4N)c(Cl)cc23)C[C@H]1C (atropisomer, axis not shown; (M)) [Example 92-17, (M)-7-(2-Amino-3-fluoro-phenyl)-6-chloro-4-[(2S,5R)-2,5-dimethyl-4-prop-2-enoyl-piperazin-1-yl]-1-(2-isopropyl-4-methyl-3-pyridyl)pyrido[2,3-d]pyrimidin-2-one] | 0.018 µM | 0.042 µM | > 7.5 µM
10 | C=CC(=O)N1C[C@H](C)N(c2nc(=O)n(-c3c(C)ccnc3C(C)C)c3nc(-c4ccccc4NC(C)=O)c(Cl)cc23)C[C@H]1C (atropisomer, axis not shown; (M)) [Example 92-18, (M)-N-[2-[6-Chloro-4-[(2S,5R)-2,5-dimethyl-4-prop-2-enoyl-piperazin-1-yl]-1-(2-isopropyl-4-methyl-3-pyridyl)-2-oxo-pyrido[2,3-d]pyrimidin-7-yl]phenyl] acetamide] | 0.17 µM | 0.085 µM | > 7.5 µM
11 | C=CC(=O)N1C[C@H](C)N(c2nc(=O)n(-c3c(C)ccnc3C(C)C)c3nc(-c4ccccc4N(C)C)c(Cl)cc23)C[C@H]1C (atropisomer, axis not shown; (M)) [Example 92-19, (M)-6-Chloro-7-[2-(dimethylamino)phenyl]-4-[(2S,5R)-2,5-dimethyl-4-prop-2-enoyl-piperazin-1-yl]-1-(2-isopropyl-4-methyl-3-pyridyl)pyrido [2,3-d]pyrimidin-2-one] | 0.027 µM | 0.044 µM | > 7.5 µM
12 | C=CC(=O)N1C[C@H](C)N(c2nc(=O)n(-c3c(C)ccnc3C(C)C)c3nc(-c4ccccc4C(N)=O)c(Cl)cc23)C[C@H]1C (atropisomer, axis not shown; (M)) [Example 92-21, (M)-2-[6-Chloro-4-[(2S,5R)-2,5-dimethyl-4-prop-2-enoyl-piperazin-1-yl]-1-(2-isopropyl-4-methyl-3-pyridyl)-2-oxo-pyrido[2,3-d]pyrimidin-7-yl]benzamide] | 0.637 µM | 0.051 µM | > 7.5 µM
13 | C=CC(=O)N1C[C@H](C)N(c2nc(=O)n(-c3c(C)ccnc3C(C)C)c3nc(-c4ccccc4C(F)(F)F)c(Cl)cc23)C[C@H]1C (atropisomer, axis not shown; (M)) [Example 92-23, (M)-6-Chloro-4-[(2S,5R)-2,5-dimethyl-4-prop-2-enoyl-piperazin-1-yl]-1-(2-isopropyl-4-methyl-3-pyridyl)-7-[2-(trifluoromethyl)phenyl]pyrido [2,3-d]pyrimidin-2-one] | 0.036 µM | 0.038 µM | > 7.5 µM
14 | C=CC(=O)N1C[C@H](C)N(c2nc(=O)n(-c3c(C)ccnc3C(C)C)c3nc(-c4c(F)cccc4C(N)=O)c(Cl)cc23)C[C@H]1C (atropisomer, axis not shown; (M)) [Example 92-24, (M)-2-[6-Chloro-4-[(2S,5R)-2,5-dimethyl-4-prop-2-enoyl-piperazin-1-yl]-1-(2-isopropyl-4-methyl-3-pyridyl)-2-oxo-pyrido[2,3-d]pyrimidin-7-yl]-3-fluoro-benzamide] | 0.116 µM | 0.019 µM | > 7.5 µM
15 | C=CC(=O)N1C[C@H](C)N(c2nc(=O)n(-c3c(C)ccnc3C(C)C)c3nc(-c4ccccc4NC)c(Cl)cc23)C[C@H]1C (atropisomer, axis not shown; (M)) [Example 92-25, (M)-6-Chloro-4-[(2S,5R)-2,5-dimethyl-4-prop-2-enoyl-piperazin-1-yl]-1-(2-isopropyl-4-methyl-3-pyridyl)-7-[2-(methylamino)phenyl]pyrido[2,3-d]pyrimidin-2-one] | 0.016 µM | 0.04 µM | > 7.5 µM
16 | C=CC(=O)N1C[C@H](C)N(c2nc(=O)n(-c3c(C)ccnc3C(C)C)c3nc(-c4cc(F)cc(F)c4N)c(Cl)cc23)C[C@H]1C (atropisomer, axis not shown; (M)) [Example 92-26, (M)-7-(2-Amino-3,5-difluoro-phenyl)-6-chloro-4-[(2S,5R)-2,5-dimethyl-4-prop-2-enoyl-piperazin-1-yl]-1-(2-isopropyl-4-methyl-3-pyridyl)pyrido [2,3-d]pyrimidin-2-one] | 0.023 µM | 0.101 µM | > 7.5 µM
17 | C=CC(=O)N1C[C@H](C)N(c2nc(=O)n(-c3c(C)ccnc3C(C)C)c3nc(-c4ccccc4C(=O)NC)c(Cl)cc23)C[C@H]1C (atropisomer, axis not shown; (M)) [Example 92-27, (M)-2-[6-Chloro-4-[(2S,5R)-2,5-dimethyl-4-prop-2-enoyl-piperazin-1-yl]-1-(2-isopropyl-4-methyl-3-pyridyl)-2-oxo-pyrido[2,3-d]pyrimidin-7-yl]-N-methyl-benzamide] | 0.735 µM | 0.149 µM | > 7.5 µM
18 | C=CC(=O)N1C[C@H](C)N(c2nc(=O)n(-c3c(C)ccnc3C(C)C)c3nc(-c4ccccc4C(=O)N(C)C)c(Cl)cc23)C[C@H]1C (atropisomer, axis not shown; (M)) [Example 92-28, (M)-2-[6-Chloro-4-[(2S,5R)-2,5-dimethyl-4-prop-2-enoyl-piperazin-1-yl]-1-(2-isopropyl-4-methyl-3-pyridyl)-2-oxo-pyrido[2,3-d]pyrimidin-7-yl]-N,N-dimethyl-benzamide] | 0.11 µM | 0.123 µM | > 7.5 µM
